Data on seven compounds can be found in PubChem BioAssay (NCI).

Where “and” joins values, the source holds several entries; their conditions need not be identical. Equal entries are not always repeated.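 Values below derive from 48-hour exposures of cells grown in 96-well plates, with endpoints linearly interpolated between the two concentrations bracketing the appropriate inhibition level. The concentration for 50% growth inhibition is given as GI50. TGI denotes the concentration required for complete inhibition of growth.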

Common to all, as to experiment: DTP human tumour cell line panel, 48 h
Experiment [1] concerns DU-145 prostate.
Experiment [2] has as its system M14 melanoma.
The subject of experiment [3] is MOLT-4 leukemia.
For experiment [4], the system named is NCI-H23 lung.
For experiment [5], the system named is NCI/ADR-RES ovarian.
Experiment [6] deals with OVCAR-4 ovarian.
For experiment [7], the system named is SK-MEL-5 melanoma.
For experiment [8], the system named is T-47D breast.
Experiment [9] deals with U251 CNS.
Experiment [10] deals with UO-31 renal.

Regarding `O=C(Nc1ccccc1)c1c(O)[nH]c(=S)[nH]c1=O`, the concentration for total growth inhibition (TGI) in [1] is 103 µM; in [2], 108 µM; in experiment [3], 53.2 µM and 96.4 µM; in experiment [4], 82.6 µM and > 250 µM; in [5], 83.8 µM; in experiment [6] it was 103 µM and > 250 µM. For the same compound, the TGI in [7] is 46 µM and 85.2 µM; in [8], 105 µM; in experiment [9], 109 µM and > 250 µM; in experiment [10], 65.9 µM and 174 µM. Also, the GI50 was 40 µM in [3]; 83.6 µM in experiment [4]; 87.2 µM in experiment [6]; 40.5 µM in experiment [7]; 66.5 µM in [9]; 65.4 µM in [10].
`Cc1cnc(NCCCN(C)C)c2c1[nH]c1ccc3cc(O)ccc3c12`: the TGI in experiment [1] came to 4.03 µM; in experiment [2], 2.55 µM; in experiment [3] it was 0.534 µM; in experiment [4] it was 2.04 µM; in [5], 20.1 µM; in experiment [6], 1.19 µM. Besides, the TGI in [7] turned out to be 2.2 µM; in experiment [8], 2.78 µM; in [9] it was 1.02 µM; in experiment [10], 5.8 µM.
For the compound `CN1CCCCC1CCN1c2ccccc2Sc2ccc(Cl)cc21` (stereo unspecified), the GI50 in experiment [1] is 5.5 µM; in experiment [2] it was 2.02 µM; in experiment [3], 3.2 µM; in experiment [4], 10.7 µM; in experiment [5], 2.89 µM; in [6], 3.66 µM. Further, the GI50 in [7] is 1.7 µM; in [8] it was 4.25 µM; in [9], 2.59 µM; in experiment [10], 2.92 µM. Also, the total growth inhibition concentration (TGI) in [1] was found to be 17.6 µM; in experiment [2] it was 3.97 µM; in experiment [3], 10.2 µM; in [4] it was 26.8 µM; in experiment [5], 7.62 µM; in [6], 16 µM. Moreover, the TGI in experiment [7] worked out at 3.25 µM; in [8], 18.8 µM; in experiment [9], 6.76 µM; in [10] it was 12.7 µM.
As to `CCOC1Oc2ccccc2C(=O)/C1=C/Nc1ccc(C(C)=O)cc1` (stereo unspecified), the GI50 was 29.6 µM in experiment [1]; 17.4 µM in [2]; 15.8 µM in experiment [3]; 13.9 µM in [4]; 15.6 µM in [5]; 49 µM in [6]. Also, the GI50 in experiment [7] was 19.1 µM; in experiment [8], 62.7 µM; in experiment [9], 23.9 µM; in [10], 27.9 µM. For the same compound, the TGI was over 100 µM in experiment [1]; 35.9 µM in experiment [2]; 53.3 µM in experiment [3]; 36.2 µM in [4]; 38.6 µM in [5]; over 100 µM in [6]. Moreover, the TGI is 43 µM in experiment [7], over 100 µM in [8], 67.5 µM in experiment [9] and over 100 µM in experiment [10].
Turning to `Cc1ccc2c(C)c3c(ccc4ccccc43)c[n+]2c1`, the GI50 is 14.7 µM in experiment [1]; 14.1 µM in [2]; 5.54 µM in experiment [3]; 3.96 µM in experiment [4]; over 100 µM in experiment [5]; 5.21 µM in [6]. The GI50 in experiment [7] is 2.25 µM; in experiment [8], 1.73 µM; in [9], 2.8 µM; in [10], 27.8 µM. Also, the TGI is 40.6 µM in experiment [1]; 31.7 µM in experiment [2]; 28.4 µM in experiment [3]; 38.6 µM in experiment [4]; over 100 µM in experiment [5]; 41.7 µM in experiment [6]. In addition, the TGI in experiment [7] is 10.4 µM; in experiment [8], 7.18 µM; in [9], 18.6 µM; in experiment [10], over 100 µM.
In the case of `C[C@@H](Oc1cc(-n2cnc3ccc(CN4CCN(C)CC4)cc32)sc1C(N)=O)c1ccccc1C(F)(F)F`, the GI50 in [1] was < 0.0134 µM and 0.00975 µM; in [2] it was 0.0123 µM; in experiment [3], < 0.0107 µM and 0.0112 µM; in experiment [4], < 0.0114 µM and 0.0145 µM; in experiment [5], 0.162 µM and 0.2 µM; in [6], 0.817 µM and 0.98 µM. Further, the GI50 in [7] was 0.0218 µM and 0.0976 µM; in experiment [8], 3.35 µM; in [9], < 0.0137 µM and 0.0255 µM; in experiment [10] it was 1.67 µM and 0.776 µM. Moreover, the TGI in [1] is 0.652 µM and 0.188 µM; in [2] it was 2.31 µM; in experiment [3] it was 4.71 µM and 2.76 µM; in experiment [4], 13.2 µM and > 10 µM; in experiment [5] it was 14.3 µM and > 10 µM; in [6], 17.5 µM and > 10 µM. In addition, the TGI in experiment [7] was 1.51 µM and > 10 µM; in [8], 21.4 µM and > 10 µM; in experiment [9], 15.6 µM and > 10 µM; in [10] it was 16.6 µM and > 10 µM.
Consider `Nc1c(C(=O)c2cccc(CCS(N)(=O)=O)c2)cnn1-c1ccc(F)cc1`, for which the GI50 in [1], in [2], in experiment [3], in experiment [4], in experiment [5] and in experiment [6] was over 25 µM in each case. Besides, the GI50 was over 16.7 µM in experiment [7], over 20.6 µM in experiment [8], over 25 µM in experiment [9] and over 25 µM in experiment [10]. Further, the TGI in [1], in [2], in experiment [3], in experiment [4], in experiment [5] and in experiment [6] was over 25 µM throughout. Besides, the TGI in experiment [7], in experiment [8], in [9] and in experiment [10] was over 25 µM throughout.

A word on the TGI: it is the concentration giving total growth inhibition. Read a low TGI as more potent growth arrest. Usually GI50 stands for the concentration giving 50% growth inhibition.
